# Where two headings read alike, the source gives them in different places. Marks after values point to notes of the source that are not given here.
# Legend:
# [1] = Urine pharmacokinetics of barasertib and barasertib-hQPA (LC-MS/MS) in patients with AML; assay type: in vivo, human
# Method: (§1) This was an open-label, single-arm, single-center, Phase I study. Patients received barasertib 1,200 mg as a 7-day continuous intravenous infusion every 28 days. On Day 2 of Cycle 1 only, patients also received [^14C]-barasertib (250 μCi), administered as a 2-hour infusion. Based on preclinical studies in rat and dog, it was expected that an adequate recovery of total radioactivity, and thus comprehensive metabolite profiling, would be achieved following the administration of the specified [^14C]-barasertib regimen (data on file). On the completion of the [^14C]-barasertib infusion, administration of non-radiolabeled barasertib resumed for the remainder of the 7-day infusion period. Following Cycle 1, each patient could receive subsequent treatment cycles until disease progression or any other discontinuation criteria were met. For Cycle 1, patients remained as in-patients for up to 9 days following the start of the 7-day barasertib infusion (7 days of dosing plus 2 additional days for observation). For all subsequent cycles, patients were hospitalized for the infusion period only.
# (§2) Samples of blood, urine and feces were collected prior to study treatment and at various time points during Cycle 1. Blood samples were collected approximately 30 min prior to start of infusion (SOI) on Day 1 (barasertib) and Day 2 ([^14C]-barasertib), and then every 24 h until Day 10 (216 h) and on Days 14 and 18 (312 and 408 h, respectively). In addition, samples were collected on Day 2: 1 h following the start of the [^14C]-barasertib infusion ([^14C]-SOI), 5 min prior to the end of [^14C]-barasertib infusion ([^14C]-EOI), and at 15 min, 1, 2, 4 and 8 h following [^14C]-EOI; and on Day 8: 5 min prior to the end of the barasertib infusion (EOI), and at 15 min, 1, 2, 4, 6 and 10 h following EOI. A urine sample was collected within the 24-hour period prior to barasertib-SOI; feces samples within this 24-hour period were also collected. A urine sample was collected within the 24-hour period following barasertib-SOI. Further, urine and feces samples were collected within 24-hour periods following [^14C]-SOI: 0–24, 24–48, 48–72, 72–96, 96–120, 120–144, 144–168 and 168–192 h.
# Barasertib and barasertib-hQPA concentrations in plasma and urine were measured using liquid chromatography tandem mass spectrometry following solid-phase extraction (plasma) or dilution (urine). Plasma measurements were determined by an independent bioanalytical facility (PRA International—Early Development Services, Assen, The Netherlands). The lower limit of quantification (LLOQ) was 0.25 ng/mL for plasma samples and 1.00 μg/mL for urine samples. Radioactivity in weighed aliquots of plasma, urine, feces, whole blood and dose material was determined by liquid scintillation counting (LSC). Radioactivity concentrations in plasma and whole blood, and percentage dose excreted in urine and feces samples were calculated using LabLogic Debra 5TM (version 5.4.10.51). For metabolite profiling, plasma samples that were collected 5 min prior to [^14C]-EOI for each patient were prepared using 5 % formic acid in acetonitrile; extraction efficiencies were all >91 %. Extracts were concentrated to dryness and reconstituted in water/acetonitrile (95:5 v/v). […] Metabolite profiling was determined using high-performance liquid chromatography–radiometric (HPLC-RAD) methodology, with metabolites identified by HPLC coupled with mass spectrometry (HPLC-MSn).
# [2] = Plasma pharmacokinetics of barasertib and barasertib-hQPA (LC-MS/MS), 7-day continuous infusion in patients with AML; assay type: in vivo, human; settings: for Time by which maximal plasma concentration was achieved: from start of infusion, first scheduled sample
# Method: as §1, §2
# Barasertib and barasertib-hQPA concentrations in plasma and urine were measured using liquid chromatography tandem mass spectrometry following solid-phase extraction (plasma) or dilution (urine). Plasma measurements were determined by an independent bioanalytical facility (PRA International—Early Development Services, Assen, The Netherlands). The lower limit of quantification (LLOQ) was 0.25 ng/mL for plasma samples and 1.00 μg/mL for urine samples. Radioactivity in weighed aliquots of plasma, urine, feces, whole blood and dose material was determined by liquid scintillation counting (LSC). Radioactivity concentrations in plasma and whole blood, and percentage dose excreted in urine and feces samples were calculated using LabLogic Debra 5TM (version 5.4.10.51). For metabolite profiling, plasma samples that were collected 5 min prior to [^14C]-EOI for each patient were prepared using 5 % formic acid in acetonitrile; extraction efficiencies were all >91 %. Extracts were concentrated to dryness and reconstituted in water/acetonitrile (95:5 v/v). Pooled urine samples were freeze-dried and then reconstituted in methanol (duplicate extracts); extraction efficiencies were all >94 %. The two extracts were combined, concentrated to dryness and reconstituted in water/acetonitrile (95:5 v/v). Pooled feces samples were extracted with hexane followed by 3 × 5 % formic acid in acetonitrile; extraction efficiencies ranged from 86 to 98 %. The first two 5 % formic acid/acetonitrile extracts were combined, concentrated to a small volume and reconstituted in water/acetonitrile (95:5 v/v). Metabolite profiling was determined using high-performance liquid chromatography–radiometric (HPLC-RAD) methodology, with metabolites identified by HPLC coupled with mass spectrometry (HPLC-MSn).
# [3] = Metabolite profiling of plasma, urine and feces by HPLC-RAD / HPLC-MSn; assay type: in vivo, human
# Method: Samples of blood, urine and feces were collected prior to study treatment and at various time points during Cycle 1. […] A urine sample was collected within the 24-hour period prior to barasertib-SOI; feces samples within this 24-hour period were also collected. A urine sample was collected within the 24-hour period following barasertib-SOI.
# Barasertib and barasertib-hQPA concentrations in plasma and urine were measured using liquid chromatography tandem mass spectrometry following solid-phase extraction (plasma) or dilution (urine). Plasma measurements were determined by an independent bioanalytical facility (PRA International—Early Development Services, Assen, The Netherlands). […] Radioactivity in weighed aliquots of plasma, urine, feces, whole blood and dose material was determined by liquid scintillation counting (LSC). Radioactivity concentrations in plasma and whole blood, and percentage dose excreted in urine and feces samples were calculated using LabLogic Debra 5TM (version 5.4.10.51). […] Extracts were concentrated to dryness and reconstituted in water/acetonitrile (95:5 v/v). […] The two extracts were combined, concentrated to dryness and reconstituted in water/acetonitrile (95:5 v/v). […] The first two 5 % formic acid/acetonitrile extracts were combined, concentrated to a small volume and reconstituted in water/acetonitrile (95:5 v/v). Metabolite profiling was determined using high-performance liquid chromatography–radiometric (HPLC-RAD) methodology, with metabolites identified by HPLC coupled with mass spectrometry (HPLC-MSn).
# [4] = system: patients with AML; test: Safety: adverse events graded by CTCAE version 3.0; assay type: in vivo, human
# Method: (§3) Efficacy was assessed according to the International Working Group for AML trials criteria. Adverse events (AEs) were graded according to the National Cancer Institute Common Terminology Criteria for Adverse Events (CTCAE), version 3.0 [19].
# [5] = system: patients with AML; parameters: method as in PMID 21976672, PMID 21565405; settings: Phase I studies, Japanese and Western patients with AML; cited from earlier work
# [6] = system: AML patients; settings: Phase I/II dose-escalation study; cited from earlier work
# [7] = system: patients with AML; test: Efficacy: response by International Working Group AML criteria; assay type: in vivo, human
# Method: The primary objective was to assess the PK, metabolism and excretion profiles of barasertib and barasertib-hQPA following a single 7-day intravenous infusion, including a short infusion of [^14C]-barasertib, to patients with AML. Secondary objectives were to assess the safety and tolerability of barasertib and to evaluate preliminary efficacy by measurement of individual patient response (based on the International Working Group AML clinical response criteria).
# as §3
# [8] = urine, n=5, arithmetic mean (standard deviation)
# [9] = human, plasma, iv, 1200 mg, plasma, n=4, barasertib 1,200 mg 7-day continuous i.v. infusion, geometric mean (coefficient of variation), read-out: AUC(0–t)
# [10] = plasma, n=4, barasertib 1,200 mg 7-day continuous i.v. infusion, geometric mean (coefficient of variation)
# [11] = excreta (urine and feces), % of administered dose
# [12] = plasma collected 5 min prior to [14C]-EOI, % of chromatogram radioactivity
# [13] = Grade 3, barasertib 1,200 mg, n = 5
# [14] = all grades, any cause, barasertib 1,200 mg, n = 5
# [15] = all grades, barasertib 1,200 mg, n = 5
molecule,measurement,setting,value
"CCN(CCO)CCCOc1ccc2c(Nc3cc(CC(=O)Nc4cccc(F)c4)[nH]n3)ncnc2c1 [Barasertib-hQPA, barasertib-hydroxyquinazoline-pyrazol-aniline]",Geometric mean urine concentration,[1]; during the infusion period,4 to 5 µg/mL
same,CL renal,"[1]; human, urine and plasma, intravenous, 1200 mg, urine, n=5, arithmetic mean (standard deviation), read-out: CLR, renal clearance of drug from plasma (converted)",47.5 mL/min
same,"Ae, cumulative amount of unchanged drug excreted",[1]; [8],96.9 (47.2) mg
same,"fe, fraction of drug excreted into urine",[1]; [8],8.1 (3.9) %
same,Geometric mean plasma concentration of barasertib-hQPA relative to barasertib,[2]; during the infusion period,approximately threefold
same,Time by which maximal plasma concentration was achieved,[2],≤ 24 h
same,Difference between volumes of distribution (apparent) at steady state versus terminal phase,"[2]; human, in vivo",fourfold
same,clearance,"[2]; human, intravenous, 1200 mg, plasma, n=4, arithmetic mean (standard deviation), read-out: CL, total clearance (converted)",523 mL/min
same,half-life,"[2]; human, intravenous, 1200 mg, plasma, n=4, arithmetic mean (standard deviation), read-out: t½, terminal half-life (converted)",66.3 h
same,k el,"[2]; human, intravenous, 1200 mg, plasma, n=4, arithmetic mean (standard deviation), read-out: λZ, slowest disposition rate constant (converted)",5.56e-06 s⁻¹
same,AUC,"[2]; human, iv, 1200 mg, plasma, n=4, barasertib 1,200 mg 7-day continuous i.v. infusion, geometric mean (coefficient of variation)",40400 ng·h/mL
same,Vd,"[2]; human, plasma, intravenous, 1200 mg, plasma, n=4, arithmetic mean (standard deviation), read-out: VSS, volume of distribution (apparent) at steady state",669 L
same,Vd,"[2]; human, plasma, intravenous, 1200 mg, plasma, n=4, arithmetic mean (standard deviation), read-out: VZ, volume of distribution (apparent) during terminal (λZ) phase",2800 L
same,concentration at 408 h,"[2]; human, plasma, intravenous, 1200 mg, 408 h (Day 18), read-out: Plasma concentration at final sampling point",~4 ng/mL
same,AUC(0-t),"[2]; human, plasma, iv, 1200 mg, plasma, n=4, barasertib 1,200 mg 7-day continuous i.v. infusion, geometric mean (coefficient of variation), read-out: AUC(0–192 h)",38200 ng·h/mL
same,AUC(0-t),[2]; [9],40100 ng·h/mL
same,"CSS, steady-state drug concentration",[2]; [10],226.8 (0.4) ng/mL
same,Plasma concentration as fraction of the plasma steady-state concentration,"[2]; within 2 h post-EOI, rapid initial phase",one-third
same,"Retrieved radioactivity (%), range",[3]; [11],13.15–33.70%
same,"Retrieved radioactivity (%), range","[3]; excreta (urine and feces), % of administered dose, listed as barasertib-hQPA",13.2–33.7%
same,"Retrieved radioactivity (%), range",[3]; [12],48.27–56.61%
CCN(CCCOc1ccc2c(Nc3cc(CC(=O)Nc4cccc(F)c4)n[nH]3)ncnc2c1)CCOP(=O)(O)O [Barasertib],Urine concentration,"[1]; all time points, LLOQ 1.00 μg/mL urine",below LLOQ
same,"Febrile neutropenia, number of patients",[4]; [13],2
same,"Hypocalcemia, number of patients",[4]; [13],1
same,"Hypomagnesemia, number of patients",[4]; [13],1
same,"Stomatitis, number of patients",[4]; [13],2
same,"Febrile neutropenia, number of patients","[4]; Grade 4, barasertib 1,200 mg, n = 5",1
same,"Nausea, number of patients",[4]; [14],4
same,"Stomatitis, number of patients",[4]; [14],4
same,"Alopecia, number of patients",[4]; [15],3
same,"Constipation, number of patients",[4]; [15],2
same,"Decreased appetite, number of patients",[4]; [15],2
same,"Diarrhea, number of patients",[4]; [15],2
same,"Fatigue, number of patients",[4]; [15],2
same,"Febrile neutropenia, number of patients",[4]; [15],3
same,"Headache, number of patients",[4]; [15],2
same,"Hypocalcemia, number of patients",[4]; [15],3
same,"Hypomagnesemia, number of patients",[4]; [15],2
same,"Oral candidiasis, number of patients",[4]; [15],2
same,"Peripheral edema, number of patients",[4]; [15],2
same,"Vomiting, number of patients",[4]; [15],3
same,Patients who had died due to an AE,"[4]; at data cutoff, grade 5 multi-organ failure, considered unrelated to study treatment",one
same,Changes in vital signs or ECG measurements,"[4]; barasertib 1,200 mg, n = 5",no clinically relevant changes
same,Patients who experienced grade ≥3 AEs,"[4]; barasertib 1,200 mg, n = 5",three
same,Response rates,[5],19–25%
same,Time after end of infusion at which plasma concentration reached the LLOQ,[2]; LLOQ 0.25 ng/mL plasma,≤ 6 h
same,Time by which maximal plasma concentration was achieved,[2],≤ 24 h
same,AUC(0-t),[2]; [9],13800 ng·h/mL
same,"CSS, steady-state drug concentration",[2]; [10],85.6 (0.5) ng/mL
same,Maximum tolerated dose (MTD),[6],"1,200 mg"
same,Patients with no response,[7]; four patients evaluable for response,three
same,Patients achieving complete response / complete remission,"[7]; four patients evaluable for response, barasertib 1,200 mg 7-day infusion every 28 days",One
same,Duration of complete response,[7]; one patient,~ 6 months
same,"Retrieved radioactivity (%), range",[3]; [12],17.26–26.53%
Barasertib-hQPA N-oxide,"Retrieved radioactivity (%), range",[3]; [11],0.21–2.96%
CCN(CCO)CCCOc1ccc2c(Nc3cc(CC(=O)O)[nH]n3)ncnc2c1 [Barasertib-hQPA desfluoroaniline],"Retrieved radioactivity (%), range",[3]; [11],1.60–5.48%
same,"Retrieved radioactivity (%), range",[3]; [12],2.05^e %
